{
  "source": "patent US9782428B2",
  "about": "“Method for generation of broadly neutralizing anti-pathogen antibodies” (Northeastern University, priority 2013, dated 2017)",
  "key": {"resting B cells": {"test_system": "resting B cells", "test": "In vitro class switch recombination IgM to IgG1 in resting B cells stimulated with anti-CD40 and IL-4", "format": "cell-based, mice", "details": "four days in culture; for class switching of IgM to IgG1: gated on B220+, vs untreated B cells", "method": "Female C57 B/6 mice were sacrificed and spleens harvested and generated into single cell suspensions. Lymphocytes were isolated using Ficoll separation (GE Healthcare) and interface layer was collected after centrifugation (1000×g for 10 minutes). Cells were FC Blocked as described above and then stained with CD43 FITC (clone S7) and then washed and stained with anti-FITC microbeads (Miltenyi) at 4° C. for 30 minutes. Cells were then depleted using magnetic separation autoMACS deplete(s) program (Miltenyi). The depleted fraction was used for experiments as these consist of resting B cells.\nB cells plated in a 24 well plate at 200,000 cells pre well with IMDM media, as described in Example 3 (1 ml media/well). B cells were then stimulated using anti-CD40 antibody (2.5 μg/ml clone IC-10 eBiosciences) and recombinant mouse IL-4 (10 ng/ml, R&D). […] All stimulating reagents were added at the seeding of the culture on day 0 and no other drugs were added thereafter.\nAfter four days in culture, amount of class switch to IgG1 was determined by flow cytometric analysis by staining with anti-mouse IgM, IgG1, and B220. Plots are all gated on B220+ cells (FIG. 8A-8F)"}, "germinal center B cells": {"test_system": "germinal center B cells", "test": "Flow cytometric analysis of germinal center B cells from immunized mice treated with CGS-21680 (Experiments 1 and 3)", "format": "in vivo", "method": "All mice were sacrificed on day 6.\nAll mice were sacrificed on day 21.\nFlow cytometric analysis of germinal center B cells from Experiment 1 (gated as lymphocytes, B220+, Gl-7 positive, CD38 negative; FIGS. 10E and 10F) and Experiment 3 (B220 positive, Gl-7 hi, IgD-negative; FIG. 10D) was performed. The flow cytometric analysis was performed according to the protocol discussed in Example."}, "[1]": {"test_system": "Gs coupled protein receptor", "details": "dopamine at day 44 and day 62 plus inspiration of hyperoxic gas mixture; day 47 and day 65; vs untreated mice", "procedure": "12 male wild type C57 B/6 mice 10-12 weeks of age are immunized as described in Example 1. At day 21, the mice are given an immune boost of 1 μg NP-OVA with adjuvant via intraperitoneal injection. At day 42, the mice are given an immune challenge of 1 μg NP-OVA without adjuvant via tail vein injection. […] Samples at 5 days and 23 days post immune challenge (i.e., day 47 and day 65 of the assay) will be subjected to ELISA measurement for NIP-25."}, "[2]": {"details": "Experiment 1, 5 subcutaneous injections 1 mg/kg days 4-6, sacrificed day 6"}},
  "note": "Entries after “also recorded” stand apart in the source; their conditions may differ.",
  "data": [
    {"smiles": "CCNC(=O)[C@H]1O[C@@H](n2cnc3c(N)nc(NCCc4ccc(CCC(=O)O)cc4)nc32)[C@H](O)[C@@H]1O", "note": "[CGS21680]", "values": [
      {"measurement": "class switching of IgM to IgG1", "setting": "resting B cells; 10 μM", "result": "has class switching"},
      {"measurement": "amount of class switched NP-PE binding cells", "setting": "germinal center B cells; [2]", "result": "higher amount"},
      {"measurement": "proportion of class switched IgG1 germinal center B cells", "setting": "germinal center B cells; [2]", "result": "enhanced class switching"},
      {"measurement": "proportion of class switched IgG1 germinal center B cells", "setting": "germinal center B cells; Experiment 1, 5 subcutaneous injections 1 mg/kg days 4-6, sacrificed day 6, listed as CGS-21680", "result": "increased proportion"},
      {"measurement": "frequency of germinal center B cells", "setting": "germinal center B cells; Experiment 3, 1 mg/kg subcutaneous twice daily day 8-20, sacrificed day 21, compared to control", "result": "decrease"}
    ]},
    {"smiles": "CCNC(=O)[C@H]1O[C@@H](n2cnc3c(N)ncnc32)[C@H](O)[C@@H]1O", "note": "[NECA, N-ethylcarboxyamidoadenosine]", "values": [
      {"measurement": "class switching of IgM to IgG1, dependence on concentration", "setting": "resting B cells; 100 nM, 1 μM, 10 μM", "result": "class switching increases as the concentration of NECA increases"},
      {"measurement": "class switching of IgM to IgG1", "setting": "resting B cells; 100 nM", "result": "increases the class switching; also recorded: has class switching"},
      {"measurement": "class switching of IgM to IgG1", "setting": "resting B cells; 1 μM", "result": "has class switching"},
      {"measurement": "class switching of IgM to IgG1", "setting": "resting B cells; 10 μM", "result": "has class switching"}
    ]},
    {"smiles": "NCCc1ccc(O)c(O)c1", "note": "[dopamine]", "values": [
      {"measurement": "levels of NIP-25", "setting": "[1]", "result": "higher levels"}
    ]}
  ]
}
